Measured values reported in the OligoGym collection.
Where “and” joins values, the source holds several entries; their conditions need not be identical. Equal values may be shown once. After the bases stand the sugars from the 5' end (letter, count) and the backbone: PS all phosphorothioate, else s phosphorothioate and o phosphodiester by linkage. Methylation of C is not given here. e = 2'-O-(2-methoxyethyl) (MOE); k = constrained ethyl (cEt); d = 2'-deoxy (DNA)

Molecular target: IRF5
Conditions: ASO

Sequence | target mRNA inhibition (KARPAS-229, 4 µM) | also measured
CCACTGTGTACCCCAT (sugars kkdddddddddkdkdk, PS) | 54% | 
CCCAATGCAACATCCA (sugars kdddddddddkekeke, PS) | 0% | 
CCCAATGCAACATCCA (sugars kkdddddddddkekek, PS) | 0% | 
CCCAATGCAACATCCA (sugars kkddddddddkekekk, PS) | 0% | 
CCCAATGCAACATCCA (sugars kkkddddddddkekek, PS) | 0% | 
CCTCATGAGTAATAGG (sugars k3 d10 k3, PS) | 0% | 
CCTTCTGCAGGGAGTC (sugars kkdddddddddkekek, PS) | 0% | 
CCTTCTGCAGGGAGTC (sugars kkkdddddddddkeke, PS) | 1% | 
CCTTCTGCAGGGAGTC (sugars kkkddddddddkdkdk, PS) | 0% | 
CGGTCTTTGAGGTCTG (sugars kdddddddddkekeke, PS) | 40% | 
CGGTCTTTGAGGTCTG (sugars kkkdddddddddkeke, PS) | 38% | 
CTAAACCATTCTATGC (sugars k3 d10 k3, PS) | 0% | 
CTGACACAGGCGGATG (sugars kddddddddddkekek, PS) | 0% | 
CTGTCACATCTCCACA (sugars k2 d9 e3 k2, PS) | 10% | 
CTGTCACATCTCCACA (sugars kkddddddddddkeke, PS) | 19% | 
CTGTCACATCTCCACA (sugars kkdddddddddkdkdk, PS) | 6% | 
CTTCTGCAGGGAGTCA (sugars k3 d10 k3, PS) | 0% | 
CTTGGTCTTGACCTCC (sugars kkkdddddddddkeke, PS) | 15% | 
CTTTCTTGTCTAGTGT (sugars k3 d10 k3, PS) | 48% | 
GAAGTGAGTCTCAAAC (sugars kddddddddddkekek, PS) | 44% | 
GAAGTGAGTCTCAAAC (sugars kkddddddddkekekk, PS) | 27% | 
GAGTCATGGGCTGAGG (sugars kdddddddddkekeke, PS) | 0% | 
GAGTCATGGGCTGAGG (sugars kkddddddddkekekk, PS) | 0% | 
GAGTCTCAAACCAGGG (sugars kddddddddddkekek, PS) | 0% | 

Sequence | target mRNA inhibition (KARPAS-229, 4 µM) | also measured
GATGGTGTTATCTCCG (sugars k2 d8 e4 k2, PS) | 0% | 
GATGGTGTTATCTCCG (sugars k3 d9 k3 e1, PS) | 0% | 
GATGGTGTTATCTCCG (sugars kkdddddddddkdkdk, PS) | 0% | 
GATGGTGTTATCTCCG (sugars kkdddddddddkekek, PS) | 0% | 
GCACTGACACAGGCGG (sugars k3 d10 k3, PS) | 14% and 0% | 
GCACTGACACAGGCGG (sugars kdddddddddkekeke, PS) | 0% | 
GCACTGACACAGGCGG (sugars kkddddddddkekekk, PS) | 0% | 
GCTGTCACATCTCCAC (sugars kddddddddddkekek, PS) | 17% | 
GCTGTCACATCTCCAC (sugars kkddddddddkekekk, PS) | 29% | 
GCTGTCACATCTCCAC (sugars kkkdddddddddkeke, PS) | 3% | 
GCTGTCACATCTCCAC (sugars kkkddddddddkdkdk, PS) | 35% | 
GCTTGGTCTTGACCTC (sugars k2 d9 e3 k2, PS) | 10% | 
GCTTGGTCTTGACCTC (sugars kekdddddddddeekk, PS) | 46% | 
GCTTGGTCTTGACCTC (sugars kkdddddddddkekek, PS) | 33% | 
GCTTGGTCTTGACCTC (sugars kkddddddddkekekk, PS) | 21% | 
GGAAGTGAGTCTCAAA (sugars k2 d9 e3 k2, PS) | 32% | 
GGAAGTGAGTCTCAAA (sugars k3 d9 k3 e1, PS) | 49% and 71% | target mRNA inhibition (KARPAS-229, 0.44444 µM): 21%; target mRNA inhibition (KARPAS-229, 1.33333 µM): 13%; target mRNA inhibition (KARPAS-229, 12 µM): 76%
GGAAGTGAGTCTCAAA (sugars kkddddddddkekekk, PS) | 36% | 
GGACGAGTTATGGGAA (sugars k3 d10 k3, PS) | 37% | 
GGAGTGAGACGAGCAA (sugars k3 d9 k3 e1, PS) | 33% | 
GGAGTGAGACGAGCAA (sugars kkddddddddddkeke, PS) | 33% | 
GGAGTGAGACGAGCAA (sugars kkdddddddddkdkdk, PS) | 16% | 
GGAGTGAGACGAGCAA (sugars kkddddddddkekekk, PS) | 38% | 
GGGCACAGCGCAGGTT (sugars kkddddddddkekekk, PS) | 61% and 66% | target mRNA inhibition (KARPAS-229, 0.44444 µM): 15%; target mRNA inhibition (KARPAS-229, 1.33333 µM): 32%; target mRNA inhibition (KARPAS-229, 12 µM): 76%

Sequence | target mRNA inhibition (KARPAS-229, 4 µM) | also measured
GGGCACAGCGCCAGGTT (sugars kddddddddddkekekd, PS) | 37% and 62% | target mRNA inhibition (KARPAS-229, 0.44444 µM): 23%; target mRNA inhibition (KARPAS-229, 1.33333 µM): 40%; target mRNA inhibition (KARPAS-229, 12 µM): 87%
GGTCTGGCCCTTTTGG (sugars kekdddddddddeekk, PS) | 13% | 
GGTCTGGCCCTTTTGG (sugars kkdddddddddkekek, PS) | 3% | 
GGTCTGGCCCTTTTGG (sugars kkddddddddkekekk, PS) | 0% | 
GGTCTGGCCCTTTTGG (sugars kkkddddddddkdkdk, PS) | 0% | 
GGTCTTGACCTCCCGC (sugars kkkddddddddkdkdk, PS) | 4% | 
GGTCTTGACCTCCCGC (sugars kkkddddddddkekek, PS) | 29% | 
GGTCTTTGAGGTCTGG (sugars k2 d9 e3 k2, PS) | 74% and 69% | target mRNA inhibition (KARPAS-229, 0.44444 µM): 22%; target mRNA inhibition (KARPAS-229, 1.33333 µM): 58%; target mRNA inhibition (KARPAS-229, 12 µM): 79%
GGTCTTTGAGGTCTGG (sugars kkddddddddddkeke, PS) | 67% and 63% | target mRNA inhibition (KARPAS-229, 0.44444 µM): 39%; target mRNA inhibition (KARPAS-229, 1.33333 µM): 43%; target mRNA inhibition (KARPAS-229, 12 µM): 72%
GGTGTATTTCCCTGTC (sugars kddddddddddkekek, PS) | 0% | 
GGTGTATTTCCCTGTC (sugars kekdddddddddeekk, PS) | 5% | 
GGTGTATTTCCCTGTC (sugars kkdddddddddkekek, PS) | 26% | 
GGTGTATTTCCCTGTC (sugars kkkddddddddkdkdk, PS) | 1% | 
GGTGTATTTCCCTGTC (sugars kkkddddddddkekek, PS) | 0% | 
GGTTCTTGGACTCTCA (sugars kddddddddddkekek, PS) | 9% | 
GGTTCTTGGACTCTCA (sugars kdddddddddkekeke, PS) | 0% | 
GGTTCTTGGACTCTCA (sugars kkkdddddddddkeke, PS) | 48% and 67% | target mRNA inhibition (KARPAS-229, 0.44444 µM): 41%; target mRNA inhibition (KARPAS-229, 1.33333 µM): 56%; target mRNA inhibition (KARPAS-229, 12 µM): 81%
GTCTAGTGTCATGGAA (sugars kkddddddddkekekk, PS) | 9% | 
GTCTGGCCCTTTTGGA (sugars k2 d9 e3 k2, PS) | 0% | 
GTCTGGCCCTTTTGGA (sugars k3 d9 k3 e1, PS) | 0% | 
GTCTGGCCCTTTTGGA (sugars kkdddddddddkdkdk, PS) | 0% | 
GTCTGGCCCTTTTGGA (sugars kkddddddddkekekk, PS) | 0% | 
GTCTTGACCTCCCGCT (sugars kkdddddddddkdkdk, PS) | 46% | 
GTCTTGACCTCCCGCT (sugars kkdddddddddkekek, PS) | 40% | 

Sequence | target mRNA inhibition (KARPAS-229, 4 µM) | also measured
GTCTTGACCTCCCGCT (sugars kkkddddddddkekek, PS) | 23% | 
GTCTTTGAGGTCTGGG (sugars kddddddddddkekek, PS) | 0% | 
GTCTTTGAGGTCTGGG (sugars kdddddddddkekeke, PS) | 33% | 
GTGAGTCTCAAACCAG (sugars kekdddddddddeekk, PS) | 22% | 
GTGAGTCTCAAACCAG (sugars kkkddddddddkdkdk, PS) | 0% | 
GTGAGTCTCAAACCAG (sugars kkkddddddddkekek, PS) | 0% | 
GTGTATTTCCCTGTCT (sugars kkddddddddddkeke, PS) | 0% | 
GTGTATTTCCCTGTCT (sugars kkddddddddkekekk, PS) | 0% | 
GTTATCTCCGTCCTGG (sugars k3 d10 k3, PS) | 31% | 
GTTCTTGGACTCTCAA (sugars k2 d9 e3 k2, PS) | 22% | 
TACCCAATGCAACATC (sugars k3 d10 k3, PS) | 0% | 
TAGGACGAGTTATGGG (sugars k3 d10 k3, PS) | 25% | 
TATCTCCGTCCTGGCT (sugars kdddddddddkekeke, PS) | 0% | 
TATCTCCGTCCTGGCT (sugars kkddddddddkekekk, PS) | 6% | 
TATTTCTGCTCCAGGT (sugars k2 d8 e4 k2, PS) | 43% | 
TATTTCTGCTCCAGGT (sugars kkddddddddddkeke, PS) | 49% and 71% | target mRNA inhibition (KARPAS-229, 0.44444 µM): 40%; target mRNA inhibition (KARPAS-229, 1.33333 µM): 53%; target mRNA inhibition (KARPAS-229, 12 µM): 79%
TATTTCTGCTCCAGGT (sugars kkdddddddddkdkdk, PS) | 27% | 
TCACCACTGTGTACCC (sugars k2 d9 e3 k2, PS) | 0% | 
TCATGAGTAATAGGAG (sugars k3 d10 k3, PS) | 11% | 
TCATTTGCCTTCTGCA (sugars k3 d10 k3, PS) | 6% | 
TCCAATTTTGCATTCC (sugars kkddddddddkekekk, PS) | 15% | 
